SMILES strings stand for the structures.

For assay [1], the system named is ds26 (DNA, duplex) CAATCGGATCGAATTCGATCCGATTG
Put plainly: competitive dialysis. Particulars: potassium phosphate buffer, 50 µM DNA, 1 µM ligand, 24 h, room temperature.

For assay [2], the system named is HT24 (DNA, G4) TAGGGTTAGGGTTAGGGTTAGGGT
Put plainly: competitive dialysis. Particulars: potassium phosphate buffer; 50 µM DNA, 1 µM ligand, 24 h, room temperature.

The test system of assay [3] is 24bcl (DNA, G4) CGGGCGCGGGAGGAAGGGGGCGGG
As to the kind of experiment: competitive dialysis. Conditions: potassium phosphate buffer; 50 µM DNA, 1 µM ligand, 24 h, room temperature.

In assay [4] the test system is cmyc (DNA, G4) GGGGAGGGTGGGGAGGGTGGGGAAGGTGGGG
As to the kind of experiment: competitive dialysis. Particulars: potassium phosphate buffer; 50 µM DNA, 1 µM ligand, 24 h, room temperature.

The subject of assay [5] is ds6 (DNA, duplex) CGATCG. As to the kind of experiment: fluorescence titration. Particulars: 185 mM KCl, 185 mM NaCl; pH 7, 25 °C; up to 25 µM DNA, 1 µM ligand; n.d., no change in fluorescence.
The test system of assay [6] is Htel (DNA, G4) TTAGGG. Put plainly: imino proton NMR melting. Particulars: 150 mM KCl, 25 mM KH2PO4; 1 mM EDTA, pH 6.7; imino signals lost at 45-55 °C free, still observed at 55 °C bound.
Assay [7] deals with Htel (DNA, G4) TTAGGG. As to the kind of experiment: 1H NMR titration and NOESY. Conditions: 150 mM KCl, 25 mM KH2PO4, 1 mM EDTA, pH 6.7, 25 °C.
Assay [8] concerns Htel (DNA, G4) TTAGGG. As to the kind of experiment: fluorescence titration, Equispec fit. Conditions: 185 mM KCl, 185 mM NaCl; 6 mM Na2HPO4, 2 mM NaH2PO4, 1 mM EDTA, pH 7, 25 °C; macroscopic; 1 µM ligand.
Assay [9] has as its system ds8 (DNA, duplex) GCGATCGC
Put plainly: 1H NMR titration. Particulars: 70 mM KCl, 10 mM KH2PO4; 0.2 mM EDTA, pH 7.0; line broadening only, no intermolecular NOE; ions stated for other duplexes.

Assay [10] deals with ds6 (DNA, duplex) CGATCG. Put plainly: 1H and 31P NMR titration. Conditions: 70 mM KCl, 10 mM KH2PO4; 0.2 mM EDTA, pH 7.0; [drug]/[DNA] up to 3.

Turning to `CN1CCN(C(=O)c2ccc3c(NC4CCN(Cc5ccccc5)CC4)c4ccccc4nc3c2)CC1`, the binding result in [1] was “no”; in assay [2], “yes”; in assay [3] it was “yes”; in assay [4], “yes”; in the assay on ds6 (DNA, duplex) CGATCG [5], “no”; in the assay on Htel (DNA, G4) TTAGGG [6], “yes”. Moreover, the binding result in the assay on Htel (DNA, G4) TTAGGG [7] (site at T2, A3, G4) is listed as “yes”. Further, the “Logarithm of the binding constants” value with Htel (DNA, G4) TTAGGG [8] was 4.4 ± 0.1 log (M-1).
For the compound `CN1CCN(C(=O)c2cccc3c(NCCc4c[nH]c5ccccc45)c4ccccc4nc23)CC1`, the binding result in [9] is “weak”; in assay [1] (NMR suggests outside binding) it was “yes”; in assay [2], “yes”; in assay [3], “yes”; in assay [4] it was “yes”; with ds6 (DNA, duplex) CGATCG [5], “no”. Also, the binding result with Htel (DNA, G4) TTAGGG [6] is “yes”; in the assay on ds6 (DNA, duplex) CGATCG [10], “no”; in the assay on Htel (DNA, G4) TTAGGG [7] (intercalates between A3 and G4), “yes”. For the same compound, the “Logarithm of the binding constants” value with Htel (DNA, G4) TTAGGG [8] is listed as 4.9 ± 0.1 log (M-1).

The values are drawn from PMC3598906 (2013).
